Results: PubChem BioAssay (NCI)
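All cell lines were grown in 96-well plates and treated with compound for 48 hours. Abbreviation: GI50, concentration required for 50% inhibition of growth. TGI: total growth inhibition.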

Columns and labels:
Assay in all cases: inhibition of tumour cell growth, NCI panel, 48 h
[1] = tested on: ACHN renal
[2] = tested on: COLO 205 colon
[3] = tested on: DMS 114 small cell lung
[4] = tested on: DMS 273 small cell lung
[5] = tested on: HOP-18 NSCLC
[6] = tested on: LXFL 529 NSCLC
[7] = tested on: MALME-3M melanoma
[8] = tested on: NCI-H522 lung
[9] = tested on: SN12C renal
[10] = tested on: SNB-75 CNS
[11] = tested on: OVCAR-8 ovarian
[12] = tested on: XF 498 CNS

SMILES	TGI [1] [µM]	TGI [2] [µM]	TGI [3] [µM]	TGI [4] [µM]	TGI [5] [µM]	TGI [6] [µM]	TGI [7] [µM]	TGI [8] [µM]	TGI [9] [µM]	TGI [10] [µM]	TGI [11] [µM]	TGI [12] [µM]	GI50 [1] [µM]	GI50 [2] [µM]	GI50 [7] [µM]	GI50 [8] [µM]	GI50 [11] [µM]	GI50 [9] [µM]	GI50 [10] [µM]
COc1cc2c(cc1OC)C1(c3ccc(Cl)cc3)ON=C(c3ccccc3)N1CS2 (stereo not given)	> 100	> 100	> 100	> 100	> 100	> 100	> 100	> 100	> 100	> 100									
CCN(c1cccc(NC(=S)Nc2ccccc2N(CC)c2cc(-c3ccccc3)no2)c1)c1cc(-c2ccccc2)no1	> 100	> 100					> 100	> 100	> 100	> 100	> 100								
Brc1ccc(-c2cn3ccncc3n2)cc1	> 100	> 100					> 100	> 100	> 100	> 100	> 100								
C/C(=C/CC[C@]1(CO)CC[C@]2(CO)[C@H](CC[C@@H]3[C@@]4(C)CC[C@H](OC5OCC(O)C(O)C5OC5OC(CO)C(O)C(O)C5O)C(C)(C)[C@@H]4CC[C@]32C)[C@H]1O)CO (stereo not given in full)	> 100	> 100					> 100	> 100	> 100	> 100	> 100								
COc1cccc(N2C(=O)C3c4[nH]c5ccc(C)cc5c4C4CCC(C(C)(C)C)CC4C3C2=O)c1 (stereo not given)	> 10	> 10					> 10	5.66	> 10	7.36	5.85								
CC(C)CN=C(N)N=C(N)N	> 100	> 100					> 100	> 100	> 100	> 100	> 100								
CCOP(=O)(OCC)C(C)(CC)NC (stereo not given)	> 100	> 100					> 100	> 100	> 100	> 100	> 100								
O=C(O)CNC(=O)c1c2ccccc2nc2ccccc12	> 100	> 100					> 100	> 100	> 100	> 100	> 100								
CCN(CC)Cc1sc2nc3ccccc3n2c1-c1ccc(OC)cc1	> 100	77.3					> 100	> 100		> 100	> 100								
Cc1cc(O)c(C(C)C)cc1C1(c2cc(C(C)C)c(O)cc2C)OC(=O)c2ccccc21	8.99	4.96					5.21	4.48	4.35	6.16	9.14								
CCOC(=O)c1ccc(C(=O)C(C(C)=O)C(=O)OC(C)(C)C)[nH]1 (stereo not given)	> 100	> 100					> 100	> 100	> 100	> 100	> 100								
CC(C)(C)c1cc(C2COC(c3cc(C(C)(C)C)c(O)c(C(C)(C)C)c3)CO2)cc(C(C)(C)C)c1O (stereo not given)	> 100	96.7					> 100	> 100	> 100	> 100	> 100								
Cc1ccc(CC(C)N)cc1 (stereo not given)	> 100	> 100	> 100	> 100	> 100	> 100	> 100	> 100	> 100	> 100	> 100								
CC(=O)OCC1OC(n2c(=O)[nH]c(=O)c3sccc32)C(Br)C1OC(C)=O (stereo not given)	> 100	> 100					> 100	> 100	> 100	> 100	> 100								
CC(C)[C@@H]1ON1C(C)c1ccccc1 (stereo not given in full)	> 100	> 100					> 100	> 100	> 100	> 100	> 100								
CSCCC(NC(=O)Cc1ccc(C(=O)c2ccccc2)cc1)C(=O)O (stereo not given)	> 100	> 100					> 100	> 100	> 100	> 100	> 100								
O[C@H]1[C@H](O)[C@@H](O)[C@@]2(O)C[C@@H](O)[C@@H]1N2	> 100	> 100					> 100	> 100	> 100	> 100	> 100								
COc1ccc(C(=O)c2[nH]c(Nc3ccc(Cl)cc3)c(C(=S)Nc3ccccc3)c2N)cc1	> 100	> 100					> 100	> 100	> 100	> 100	> 100								
CC(C)(CC(O)C#N)/[N+]([O-])=[N+](\[O-])C(C)(C)CC(O)C#N (stereo not given)	74.5	31.7					54.2	35.4	45.3	76.2	> 100								
Nc1ccc(C(=O)NN2C(=O)C(Cl)C2c2ccccc2)cc1 (stereo not given)	> 100	> 100	> 100	> 100		> 100	> 100	> 100	> 100	> 100	> 100	> 100							
COC(=O)C1=C(C)N2[C@H](C(=O)O)CO[C@@]2(C)[C@H](C(=O)OC)[C@H]1c1cccc([N+](=O)[O-])c1	> 100	> 100					> 100	> 100	> 100	> 100	> 100								
Cc1ccc(/C=C2\CCCC(CN3CCCCC3)C2=O)cc1 (stereo not given)	16.4	3.25					5.98	3.22	8.4	17.7	6.79								
CCOc1cc(NC(C)=O)ccc1C(=O)NN1C(=O)C(Cl)C1c1ccco1 (stereo not given)	29.1	38.3					24.6	25.5	32.8	26.7	> 100								
CC1OC(O[C@H]2/C=C/C=C/C=C/C=C/C=C/C=C/C=C/[C@H](C)[C@@H](O)[C@@H](C)[C@H](C)OC(=O)CC(O)CC(O)CCC(O)C(O)CC(O)C[C@]3(O)C[C@H](O)C(C(=O)O)C(C2)O3)C(O)[C@H](N)C1O (stereo not given in full)	3.18	17.2					3.68	6.02	2.99	> 100	9.86		1.68	4.19	1.88	2.58	2.9	1.58	25.3
